# Data taken from US10175228B2, “Method of using transmembrane channel-like protein 6 (TMC6) protein to identify substances affecting salty taste” (priority 2016, dated 2019).
# Target: T1, human TMC6 protein (Homo sapiens, UniProt Q7Z403)
# T1 construct: expressed in transfected cells; host or cells: CHO-K1
# T1 sequence (Q7Z403 1-805): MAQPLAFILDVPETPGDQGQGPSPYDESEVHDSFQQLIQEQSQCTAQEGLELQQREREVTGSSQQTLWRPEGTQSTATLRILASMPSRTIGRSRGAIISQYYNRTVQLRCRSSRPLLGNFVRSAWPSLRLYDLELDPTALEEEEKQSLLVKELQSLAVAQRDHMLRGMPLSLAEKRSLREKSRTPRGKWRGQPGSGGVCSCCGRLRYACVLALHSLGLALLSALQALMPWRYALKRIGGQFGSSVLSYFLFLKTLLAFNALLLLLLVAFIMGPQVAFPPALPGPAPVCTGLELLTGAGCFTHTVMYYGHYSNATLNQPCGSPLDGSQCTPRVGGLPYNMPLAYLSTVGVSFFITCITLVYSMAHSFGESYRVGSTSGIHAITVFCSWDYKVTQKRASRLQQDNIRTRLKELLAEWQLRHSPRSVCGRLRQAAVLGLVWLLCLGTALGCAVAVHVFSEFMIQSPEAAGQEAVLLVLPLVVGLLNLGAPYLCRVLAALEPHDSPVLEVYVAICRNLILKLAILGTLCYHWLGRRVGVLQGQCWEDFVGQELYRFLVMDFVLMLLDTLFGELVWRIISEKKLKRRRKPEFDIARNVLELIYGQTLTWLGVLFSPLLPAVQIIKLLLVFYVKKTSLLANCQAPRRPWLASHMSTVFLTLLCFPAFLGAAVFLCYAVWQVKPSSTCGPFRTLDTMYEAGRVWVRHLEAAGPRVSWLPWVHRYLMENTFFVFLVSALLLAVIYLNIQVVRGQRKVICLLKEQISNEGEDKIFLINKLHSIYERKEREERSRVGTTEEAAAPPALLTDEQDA
# Assay: Calcium imaging (YC2.60 FRET) of CHO-K1 cells expressing the human TMC6 gene
# Assay type: cell-based
# Settings: stimulation with high-concentration NaCl solution (135 mM NaCl)
# Protocol: After the cultivation, the culture broth was removed. A low-concentration NaCl solution (27 mM NaCl, 1 mM KCl, 0.4 mM CaCl2, 0.2 mM MgCl2, 2 mM Hepes (pH7.3), 1 mM NaHCO3, 2 mM glucose, 2 mM sodium pyruvate, and 112 mM NMDG-Cl) was added to the culture dish, incubation was carried out statically for 5 min, and then, stimulation and observation of cells were started. First, the low-concentration NaCl solution was perfused for approximately 80 sec, to provide a ground state. […] The stimulation with the ATP stimulation solution was carried out by dropping 600 μL of the ATP stimulation solution near cells to be measured on the culture dish with a pipet within 3 sec.
# Observation of the cells was carried out with a confocal laser microscope FV1200 (Olympus). […] Activation of the cells was measured using the intracellular calcium concentration as an index. The intracellular calcium concentration was measured by calcium imaging using YC2.60. YC2.60 is one of calcium-sensitive fluorescent proteins based on fluorescence resonance energy transfer (FRET). […] When calcium ions bind to YC2.60, FRET from CFP to YFP is induced, and thereby, CFP fluorescence is attenuated and YFP fluorescence is enhanced. That is, a higher intracellular calcium concentration provides a higher YFP/CFP value of a cell, which value represents the ratio of YFP fluorescence intensity with respect to CFP fluorescence intensity. […]
structure (smiles),measurement,value
"[Cl-].[Na+] [NaCl, sodium chloride]","change of YFP/CFP value (intracellular calcium concentration, cell activation)",increase
